Source: patent US8501809B2, “Inhibitors of α4 mediated cell adhesion” (Mitsubishi Tanabe Pharma Corporation, priority 2000, dated 2013)

melting point [°C] | SMILES
232 to 235 | COCc1cc(OC)c(-c2ccc(C[C@H](NC(=O)c3c(Cl)cccc3Cl)C(=O)O)cc2)c(OC)c1 [Example 5, N-(2,6-Dichlorobenzoyl)-4-(2,6-dimethoxy-4-methoxymethylphenyl)-L-phenylalanine]
182 to 184 | CCOCc1cc(OC)c(-c2ccc(C[C@H](NC(=O)c3c(F)cccc3Cl)C(=O)O)cc2)c(OC)c1 [Example 20, N-(2-Chloro-6-fluorobenzoyl)-4-(2,6-dimethoxy-4-ethoxymethylphenyl)-L-phenylalanine]
170 to 175 | COCc1cc(OC)c(-c2ccc(C[C@H](NC(=O)c3c(F)cccc3Cl)C(=O)O)cc2)c(OC)c1 [Example 23, N-(2-Chloro-6-fluorobenzoyl)-4-(2,6-dimethoxy-4-methoxymethylphenyl)-L-phenylalanine]
87 to 89 | CCOCc1cc(OC)c(-c2ccc(C[C@H](NC(=O)c3c(F)cccc3F)C(=O)OCC)cc2)c(OC)c1 [Example 10, N-(2,6-Difluorobenzoyl)-4-(2,6-dimethoxy-4-ethoxymethylphenyl)-L-phenylalanine ethyl ester]
91 to 94 | CCOCc1cc(OC)c(-c2ccc(C[C@H](NC(=O)c3c(Cl)cccc3Cl)C(=O)OCC)cc2)c(OC)c1 [Example 1, N-(2,6-Dichlorobenzoyl)-4-(2,6-dimethoxy-4-ethoxymethylphenyl)-L-phenylalanine ethyl ester]
63 to 70 | CCOCCc1cc(OC)c(-c2ccc(C[C@H](NC(=O)c3c(F)cccc3F)C(=O)O)cc2)c(OC)c1 [Example 31, N-(2,6-Difluorobenzoyl)-4-[2,6-dimethoxy-4-(2-ethoxyethyl)phenyl]-L-phenylalanine]
183 to 186 | CCCOCc1cc(OC)c(-c2ccc(C[C@H](NC(=O)c3c(Cl)cccc3Cl)C(=O)O)cc2)c(OC)c1 [Example 7, N-(2,6-Dichlorobenzoyl)-4-(2,6-dimethoxy-4-n-propoxymethylphenyl)-L-phenylalanine]
196 to 198 | CCOCc1cc(OC)c(-c2ccc(C[C@H](NC(=O)c3c(Cl)cccc3Cl)C(=O)O)cc2)c(OC)c1 [Example 3, N-(2,6-Dichlorobenzoyl)-4-(2,6-dimethoxy-4-ethoxymethylphenyl)-L-phenylalanine]
